The record followed here is patent US9221765B2, “Inhibition and dispersion of bacterial biofilms with benzimidazole derivatives” (North Carolina State University, priority 2009, dated 2015).

Counter-ions that a name gives are not always drawn.

In experiment [1] the test system is S. epidermidis. Nature of the experiment: Inhibition of S. epidermidis biofilm formation (crystal violet). The following applies: Staphylococcus epidermidis. The format is cell-based, Staphylococcus epidermidis. On the procedure:
(§1) A dose-response study was then initiated in which both the IC50 and EC50 value of each compound towards the bacterial strains were determined (Table 1). Here, IC50 is defined as the concentration of compound that inhibits 50% biofilm development while EC50 is defined as the concentration of compound that disperses 50% of a pre-formed biofilm.
(§2) Procedure to Determine the Inhibitory Effect of Test Compounds on E. faecium, MRSA, S. epidermidis, PAO1 and MDRAB Biofilm Formation:
(§3) Inhibition assays were performed by taking an overnight culture of bacterial strain and subculturing it at an OD600 of 0.01 into the necessary media (brain heart infusion for E. faecium, tryptic soy broth with a 0.5% glucose supplement (TSBG) for MRSA, Luria-Bertani (LB) media for MDRAB, Luria-Bertani media without NaCl (LBNS) for PAO1 and tryptic soy broth with a 0.5% glucose supplement and a 3.0% NaCl supplement (TGN) for S. epidermidis. Stock solutions of predetermined concentrations of the test compound were then made in the necessary media. These stock solutions were aliquoted (100 μL) into the wells of the 96-well PVC microtiter plate. Sample plates were then wrapped in GLAD Press n′ Seal® followed by an incubation under stationary conditions for 24 h at 37° C. After incubation, the media was discarded from the wells and the plates were washed thoroughly with water. Plates were then stained with 100 μL of 0.1% solution of crystal violet (CV) and then incubated at ambient temperature for 30 min. Plates were washed with water again and the remaining stain was solubilized with 200 μL of 95% ethanol. A sample of 125 μL of solubilized CV stain from each well was transferred to the corresponding wells of a polystyrene microtiter dish. Biofilm inhibition was quantitated by measuring the OD540 of each well in which a negative control lane wherein no biofilm was formed served as a background and was subtracted out.
as §3, with “2-(2-amino-1H-benzo[d]imidazol-6-ylcarbamoyl)-3,4,5,6-tetrachlorobenzoic acid hydrochloride” for “test compound”, “media. Samples were then doped with 10.0 μM FeSO4 with samples with no test compound to examine effects of 10.0 μM FeSO4 on biofilm formation.” for “media.”

Experiment [2] is described as follows: 1H NMR binding control experiment with FeSO4. The following applies: 0, 0.5, or 1.0 equivalents FeSO4. Here is the method: (§4) Given this Zn(II)-dependence, the ability of 3 to bind zinc directly was determined to ascertain if the mechanism was potentially occurring via a Zn(II)-binding mechanism. To answer this question, an ^1H NMR binding experiment was performed in which the chemical shifts of 3 were measured in the presence of 0 equivalents, 0.5 equivalents, and 1.0 equivalents ZnCl2. […] As a control, the same experiment was performed with FeSO4.

Experiment [3] deals with vancomycin-resistant Enterococcus faecium (VRE). Nature of the experiment: Inhibition of VRE (E. faecium) biofilm formation (crystal violet). The format is cell-based. On the procedure: as §1, §2, §3
as §3, with “2-(2-amino-1H-benzo[d]imidazol-6-ylcarbamoyl)-3,4,5,6-tetrachlorobenzoic acid hydrochloride” for “test compound”, “media. Samples were then doped with 10.0 μM FeSO4 with samples with no test compound to examine effects of 10.0 μM FeSO4 on biofilm formation.” for “media.”

The nature of experiment [4]: Divalent zinc binding via 1H NMR spectroscopy. The following applies: 0, 0.5, 1.0 equivalents ZnCl2; DMSO. Here is the method: as §4
Procedure to Determine the Divalent Zinc Binding Effects of Test Compounds via ^1H NMR Spectroscopy:
^1H NMR Spectra were obtained of the test compounds in DMSO on a 400 MHz NMR in the absence and in the presence of one equivalent of ZnCl2. 2-(2-amino-1H-benzo[d]imidazol-5-ylcarbamoyl)-3,4,5,6-tetrachlorobenzoic acid hydrochloride was tested at a 228 mM. 2,3,4,5-tetrachloro-6-(phenylcarbamoyl)benzoic acid was tested at 275 mM. 1H-benzo[d]imidazol-2-amine hydrochloride was tested at 649 mM.

For experiment [5], the system named is S. epidermidis. Description: Dispersion of preformed S. epidermidis biofilm. The experiment is classed as cell-based, Staphylococcus epidermidis. Conditions: concentration that disperses 50% of a pre-formed biofilm. Here is the method: as §1
Procedure to Determine the Dispersal Effect of Test Compounds on E. faecium, MRSA and S. epidermidis Preformed Biofilms:
Dispersion assays were performed by taking an overnight culture of bacterial strain and subculturing it at an OD600 of 0.01 into the necessary media (brain heart infusion for E. faecium, tryptic soy broth with a 0.5% glucose supplement (TSBG) for MRSA and tryptic soy broth with a 0.5% glucose supplement and a 3.0% NaCl supplement (TGN) for S. epidermidis. The resulting bacterial suspension was aliquoted (100 μL) into the wells of a 96-well PVC microtiter plate. Plates were then wrapped in GLAD Press n′ Seal® followed by an incubation under stationary conditions at ambient temperature to establish the biofilms. After 24 h, the media was discarded from the wells and the plates were washed thoroughly with water. Stock solutions of predetermined concentrations of the test compound were then made in the necessary media. These stock solutions were aliquoted (100 μL) into the wells of the 96-well PVC microtiter plate with the established biofilms. Media alone was added to a subset of the wells to serve as a control. Sample Plates were then incubated for 24 h at 37° C. After incubation, the media was discarded from the wells and the plates were washed thoroughly with water. Plates were then stained with 100 μL of 0.1% solution of crystal violet (CV) and then incubated at ambient temperature for 30 min. Plates were washed with water again and the remaining stain was solubilized with 200 μL of 95% ethanol. A sample of 125 μL of solubilized CV stain from each well was transferred to the corresponding wells of a polystyrene microtiter dish. Biofilm dispersion was quantitated by measuring the OD540 of each well in which a negative control lane wherein no biofilm was formed served as a background and was subtracted out.

In another experiment the test system is MRSA. Description: Inhibition of MRSA biofilm formation (crystal violet). The following applies: Staphylococcus aureus. The experiment is classed as cell-based, Staphylococcus aureus. On the procedure:
as §1, §2, §3
as §3, with “2-(2-amino-1H-benzo[d]imidazol-6-ylcarbamoyl)-3,4,5,6-tetrachlorobenzoic acid hydrochloride” for “test compound”, “media. Samples were then doped with 10.0 μM FeSO4 with samples with no test compound to examine effects of 10.0 μM FeSO4 on biofilm formation.” for “media.”

For the molecule `Nc1nc2ccc(NC(=O)c3c(Cl)c(Cl)c(Cl)c(Cl)c3C(=O)O)cc2[nH]1` [Compound 3, 2-(2-amino-1H-benzo[d]imidazol-6-ylcarbamoyl)-3,4,5,6-tetrachlorobenzoic acid hydrochloride], the half-maximal inhibitory concentration (IC50) (in general, the concentration that gives 50% inhibition) with S. epidermidis [1] was found to be 0.57 µM; in experiment [3] it was 1.4 µM; with MRSA it was 0.86 µM; with MRSA (concentration that inhibits 50% biofilm development) it was 0.89 ± 0.01 µM. Moreover, the “change in NMR signal with FeSO4” value in experiment [2] is “No change”. Also, the “zinc binding, change of 1H NMR signals” value in experiment [4] is recorded as “directly binding ZnCl2”. The EC50 – broadly, the midpoint of the concentration-response curve – in the experiment on S. epidermidis [5] (Staphylococcus epidermidis) is 7.25 µM; in the experiment with S. epidermidis [5] (hydrochloride), 7.3 µM.
